Test results from patent US11147272B2, “Pyridone compounds and agricultural and horticultural fungicides comprising the same as active ingredients” (MITSUI CHEMICALS AGRO, INC., priority 2017, dated 2021).

Assays:
Magnaporthe grisea = assay: whole plant or invertebrate; assay type: in vivo; conditions: Blast on rice; control value class
Puccinia recondita = assay: Test Example E: Brown rust on wheat; assay type: in vivo; conditions: Brown rust on wheat; control value class
[1] = tested on: Colletotrichum orbiculare; assay: Test Example H: Anthracnose on cucumber; conditions: Anthracnose on cucumber; 250 ppm spray, 6 to 10 days after inoculation
Alternaia brassicicola = assay: Test Example C: Alternaria sooty spot on cabbage; assay type: in vivo; conditions: Alternaria sooty spot on cabbage; control value class
Text: Seeds of a test plant (cabbage variety: Shikidori) were planted and cultivated until the cotyledons extended.
<Control Value> Control value=100{1−(n/3)}

Phytophthora infestans = assay: whole plant or invertebrate; assay type: in vivo; conditions: Late blight on tomato; control value class
Botrytis cinerea = assay: Test Example B: Gray mold on tomato; conditions: Gray mold on tomato; control value class
Plasmopara viticola = assay: Test Example G: Downy mildew on vine; conditions: Downy mildew on vine; 250 ppm spray, 7 to 10 days after inoculation
[2] = tested on: Blumeria graminis f. sp. hordei; assay: Test Example D: Powdery mildew on barley; conditions: Powdery mildew on barley; control value class

Structure (SMILES)	Test A control value (Magnaporthe grisea)	Test E control value (Puccinia recondita)	Test H control value [1]	Test C control value (Alternaia brassicicola)	Test F control value (Phytophthora infestans)	Test B control value (Botrytis cinerea)	Test G control value (Plasmopara viticola)	Test D control value [2]
CCn1c(-c2c(F)cc(F)cc2F)c(COc2ccc(Cl)cc2)cc(Cl)c1=O [compound 311]	L (50% or less control value)	H (more than 50% control value)	L (50% or less control value)	L (50% or less control value)	L (50% or less control value)	L (50% or less control value)	L (50% or less control value)	L (50% or less control value)
CCC1=C(c2ccc(F)cc2Cl)N(C)C(=O)CC1 [compound 312]	L (50% or less control value)	L (50% or less control value)	L (50% or less control value)	H (more than 50% control value)	L (50% or less control value)	L (50% or less control value)	L (50% or less control value)	L (50% or less control value)
CCC1=C(c2ccc(F)cc2Cl)N(C)C(=S)CC1 [compound 313]	L (50% or less control value)	L (50% or less control value)	L (50% or less control value)	L (50% or less control value)	L (50% or less control value)	L (50% or less control value)	H (more than 50% control value)	L (50% or less control value)
CCc1ccc(=O)n(C)c1-c1ccc(F)cc1Cl [compound 314]	L (50% or less control value)	H (more than 50% control value)	L (50% or less control value)	L (50% or less control value)	L (50% or less control value)	L (50% or less control value)	L (50% or less control value)	H (more than 50% control value)
CCCC1=C(c2ccc(F)cc2Cl)N(CC)C(=S)CC1 [compound 315]	L (50% or less control value)	L (50% or less control value)	L (50% or less control value)	L (50% or less control value)	L (50% or less control value)	L (50% or less control value)	L (50% or less control value)	H (more than 50% control value)
CCc1cc(Cl)c(=O)n(C)c1-c1ccc(F)cc1Cl [compound 316]	L (50% or less control value)	H (more than 50% control value)	H (more than 50% control value)	H (more than 50% control value)	H (more than 50% control value)	H (more than 50% control value)	H (more than 50% control value)	L (50% or less control value)
CCc1cc(Br)c(=O)n(C)c1-c1ccc(F)cc1Cl [compound 317]	L (50% or less control value)	H (more than 50% control value)	H (more than 50% control value)	H (more than 50% control value)	H (more than 50% control value)	H (more than 50% control value)	H (more than 50% control value)	L (50% or less control value)
CCCc1ccc(=O)n(CC)c1-c1ccc(OC)cc1Cl [compound 318]	L (50% or less control value)	H (more than 50% control value)	H (more than 50% control value)	H (more than 50% control value)	H (more than 50% control value)	H (more than 50% control value)	L (50% or less control value)	H (more than 50% control value)
CCc1ccc(=O)n(CC)c1-c1ccc(OC)cc1Cl [compound 319]	L (50% or less control value)	H (more than 50% control value)	H (more than 50% control value)	H (more than 50% control value)	L (50% or less control value)	H (more than 50% control value)	L (50% or less control value)	H (more than 50% control value)
CCCc1cc(Cl)c(=O)n(CC)c1-c1ccc(OC)cc1Cl [compound 320]	H (more than 50% control value)	H (more than 50% control value)	H (more than 50% control value)	H (more than 50% control value)	H (more than 50% control value)	H (more than 50% control value)	H (more than 50% control value)	H (more than 50% control value)
CCCc1cc(Br)c(=O)n(CC)c1-c1ccc(OC)cc1Cl [compound 321]	H (more than 50% control value)	H (more than 50% control value)	H (more than 50% control value)	H (more than 50% control value)	L (50% or less control value)	H (more than 50% control value)	H (more than 50% control value)	H (more than 50% control value)
CCc1ccc(=O)n(C)c1-c1ccc(OC)cc1Cl [compound 322]	L (50% or less control value)	H (more than 50% control value)	H (more than 50% control value)	L (50% or less control value)	L (50% or less control value)	H (more than 50% control value)	L (50% or less control value)	L (50% or less control value)
CCCC1=C(c2ccc(F)cc2Cl)N(C)C(=O)CC1 [compound 323]	L (50% or less control value)	L (50% or less control value)	L (50% or less control value)	L (50% or less control value)	L (50% or less control value)	H (more than 50% control value)	L (50% or less control value)	L (50% or less control value)
CCc1cc(Cl)c(=O)n(C)c1-c1ccc(OC)cc1Cl [compound 324]	L (50% or less control value)	H (more than 50% control value)	H (more than 50% control value)	H (more than 50% control value)	L (50% or less control value)	H (more than 50% control value)	H (more than 50% control value)	L (50% or less control value)
